These compounds were tested against T1, hNK2 receptor (Homo sapiens, UniProt P21452) (assay: Radio-ligand ([125I]-NKA) receptor binding inhibitory activity using membrane fraction of hNK2 receptor-expressing CHO cell). Conditions: membrane fraction of hNK2 receptor-expressing CHO cells, 25° C., 30 min.
T1 construct: host or cells: CHO cells
T1 sequence (P21452 1-398): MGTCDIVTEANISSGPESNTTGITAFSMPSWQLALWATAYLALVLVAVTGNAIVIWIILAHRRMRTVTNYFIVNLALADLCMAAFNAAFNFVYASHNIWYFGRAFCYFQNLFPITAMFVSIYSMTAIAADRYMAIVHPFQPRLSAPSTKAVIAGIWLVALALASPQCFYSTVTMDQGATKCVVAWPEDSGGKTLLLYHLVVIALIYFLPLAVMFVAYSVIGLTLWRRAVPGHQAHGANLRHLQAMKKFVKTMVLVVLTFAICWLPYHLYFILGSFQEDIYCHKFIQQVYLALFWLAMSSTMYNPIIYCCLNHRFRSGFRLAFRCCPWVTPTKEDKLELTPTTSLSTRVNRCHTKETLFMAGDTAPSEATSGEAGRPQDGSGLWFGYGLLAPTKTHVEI
Method: hNK2 receptor-expressing CHO cells (produced by EUROSCREEN) were cultured in HAM-F12 medium containing 400 μg/ml Geneticin, 100 U/mL penicillin, 100 μg/mL streptomycin and 10% inactivated serum. The medium was removed and adhered cells were washed with PBS, and PBS containing 5 mM EDTA was added to detach the cells from the flask. The cells were recovered by centrifugation, suspended in suspending buffer A (15 mM Tris-HCl (pH 7.5), 2 mM MgCl2, 0.3 mM EDTA, 1 mM EGTA), disrupted by POLYTRON homogenizer (manufactured by KINEMATICA) and centrifuged at 800×g for 10 min. The supernatant was recovered and ultracentrifuged at 100000×g for 25 min. The precipitated fraction was suspended in suspending buffer B (7.5 mM Tris-HCl (pH 7.5), 12.5 mM MgCl2, 0.3 mM EDTA, 1 mM, […], 250 mM Sucrose) and cryopreserved (at −80° C.) as a receptor specimen.
An assay buffer (50 μl, 50 mM Tris-HCl (pH 7.4), 0.02% bovine serum albumin, 2 μg/mL chymostatin, 40 μg/mL bacitracin, 40 μg/mL APMSF, 3 mM MnCl2) was added to a 96 well microassay plate. Thereto was added a 20 μg/mL membrane specimen suspended in the assay buffer (50 μL). An assay buffer (50 μL) containing 2% dimethyl sulfoxide was added to examine the total binding, 4 unlabeled NKA (produced by Peptide Institute, Inc.) solution (50 μL) diluted with an assay buffer containing 2% dimethyl sulfoxide was added to examine non-specific binding, and a test compound diluted with an assay buffer (50 containing 2% dimethyl sulfoxide) was added to examine the binding inhibitory activity of the test compound. Furthermore, […] [^125I]-NKA (produced by Amersham Biosciences) solution (50 μL) was added to each well.
After reaction at 25° C. for 30 min., the reaction was stopped by rapid filtration on a unifilter plate (GF/C) (manufactured by PerkinElmer) using a cell harvester (manufactured by PerkinElmer) and the cells were washed 5 times with 50 mM Tris-HCl (pH 7.4) buffer containing 0.02% bovine serum albumin (250 μL). The GF/C filter plate was dried and 20 μl, of MicroScinti-O (manufactured by PerkinElmer) was added and the radioactivity was measured in Topcount (manufactured by PerkinElmer). The GF/C filter plate, which had been immersed in 0.3% polyethyleneimine for one day, was used. Specific binding is shown by the value obtained by subtracting non-specific binding from the total binding. The binding inhibitory activity of the test compound is shown by the ratio of the value obtained by subtracting the measured value associated with the addition of the test compound from the total binding, to the value of the specific binding.

| SMILES | IC50 |
| --- | --- |
| COC[C@@H]1Nc2ccccc2[C@H]2[C@@H]1CCN2C(=O)[C@H]1CCCC[C@H]1NC(=O)c1ccc(-n2cccn2)cc1 [Example 264, N-((1R,2S)-2-{[(3aR,4R,9bR)-4-(Methoxymethyl)-2,3,3a,4,5,9b-hexahydro-1H-pyrrolo[3,2-c]quinolin-1-yl]carbonyl}cyclohexyl)-4-(1H-pyrazol-1-yl)benzamide] | < 1 nM |
| O=C(NCc1ccc(F)cc1)N[C@@H]1CCCC[C@@H]1C(=O)N1CC[C@@H]2[C@H](c3ccccc3)Nc3ccccc3[C@@H]21 [Example 145, N-(4-Fluorobenzyl)-N′-((1R,2S)-2-{[(3aR,4R,9bR)-4-phenyl-2,3,3a,4,5,9b-hexahydro-1H-pyrrolo[3,2-c]quinolin-1-yl]carbonyl}cyclohexyl)urea] | < 10 nM |
| O=C(NCCCN1CCCC1=O)N[C@@H]1CCCC[C@@H]1C(=O)N1CC[C@@H]2[C@H](c3ccccc3)Nc3ccccc3[C@@H]21 [Example 168, N-[3-(2-oxopyrrolidin-1-yl)propyl]-N′-((1R,2S)-2-{[(3aR,4R,9bR)-4-phenyl-2,3,3a,4,5,9b-hexahydro-1H-pyrrolo[3,2-c]quinolin-1-yl]carbonyl}cyclohexyl)urea] | < 10 nM |
| CCOC(=O)CCC(=O)N[C@@H]1CCCC[C@@H]1C(=O)N1CC[C@@H]2[C@H](c3ccccc3)Nc3ccccc3[C@@H]21 [Example 108] | < 10 nM |
| O=C(CCCCCN1CCOCC1)N[C@@H]1CCCC[C@@H]1C(=O)N1CC[C@@H]2[C@H](c3ccccc3)Nc3ccccc3[C@@H]21 [Example 117, 6-Morpholin-4-yl-N-((1R,2S)-2-{[(3aR,4R,9bR)-4-phenyl-2,3,3a,4,5,9b-hexahydro-1H-pyrrolo[3,2-c]quinolin-1-yl]carbonyl}cyclohexyl)hexanamide] | < 10 nM |
| COC(=O)c1ccc(C(=O)N[C@@H]2CCCC[C@@H]2C(=O)N2CC[C@@H]3[C@H](c4ccccc4)Nc4ccccc4[C@@H]32)cc1 [Example 100, Methyl 4-{[((1R,2S)-2-{[(3aR,4R,9bR)-4-phenyl-2,3,3a,4,5,9b-hexahydro-1H-pyrrolo[3,2-c]quinolin-1-yl]carbonyl}cyclohexyl)amino]carbonyl}benzoate] | < 10 nM |
| O=C(N[C@@H]1CCCC[C@@H]1C(=O)N1CC[C@@H]2[C@H](c3ccccc3)Nc3cc(F)ccc3[C@@H]21)c1ccccc1 (relative stereo) [Example 6, N-((1R,2S)-2-{[(3aR*,4R*,9bR*)-7-Fluoro-4-phenyl-2,3,3a,4,5,9b-hexahydro-1H-pyrrolo[3,2-c]quinolin-1-yl]carbonyl}cyclohexyl)benzamide] | < 10 nM |
| COC[C@@H]1Nc2ccccc2[C@H]2[C@@H]1CCN2C(=O)[C@H]1CCCC[C@H]1NC(=O)c1ccc2ccccc2n1 [Example 247, N-((1R,2S)-2-{[(3aR,4R,9bR)-4-(Methoxymethyl)-2,3,3a,4,5,9b-hexahydro-1H-pyrrolo[3,2-c]quinolin-1-yl]carbonyl}cyclohexyl)quinoline-2-carboxamide] | < 10 nM |
| COC[C@@H]1Nc2ccccc2[C@H]2[C@@H]1CCN2C(=O)[C@H]1CCCC[C@H]1NC(=O)c1ccc(-n2cccn2)nc1 [Example 288, N-((1R,2S)-2-{[(3aR,4R,9bR)-4-(Methoxymethyl)-2,3,3a,4,5,9b-hexahydro-1H-pyrrolo[3,2-c]quinolin-1-yl]carbonyl}cyclohexyl)-6-(1H-pyrazol-1-yl)nicotinamide] | < 1 nM |
| COC[C@@H]1Nc2ccccc2[C@H]2[C@@H]1CCN2C(=O)[C@H]1CCCC[C@H]1NC(=O)c1ccc2[nH]c(C(F)(F)F)nc2c1 [Example 282, N-((1R,2S)-2-{[(3aR,4R,9bR)-4-(Methoxymethyl)-2,3,3a,4,5,9b-hexahydro-1H-pyrrolo[3,2-c]quinolin-1-yl]carbonyl}cyclohexyl)-2-(trifluoromethyl)-1H-benzimidazole-5-carboxamide] | < 10 nM |
| CCNC(=O)N[C@@H]1CCCC[C@@H]1C(=O)N1CC[C@@H]2[C@H](c3ncc[nH]3)Nc3ccccc3[C@@H]21 [Example 295, N-Ethyl-N′-((1R,2S)-2-{[(3aR,4R,9bR)-4-(1H-imidazol-2-yl)-2,3,3a,4,5,9b-hexahydro-1H-pyrrolo[3,2-c]quinolin-1-yl]carbonyl}cyclohexyl)urea] | < 10 nM |
| O=C(N[C@@H]1CCCC[C@@H]1C(=O)N1CC[C@@H]2[C@H](c3ccccc3)Nc3ccc(F)cc3[C@@H]21)c1ccccc1 [Example 61, N-((1R,2S)-2-{[(3aR,4R,9bR)-8-Fluoro-4-phenyl-2,3,3a,4,5,9b-hexahydro-1H-pyrrolo[3,2-c]quinolin-1-yl]carbonyl}cyclohexyl)benzamide] | < 10 nM |
| COC[C@@H]1Nc2ccccc2[C@H]2[C@@H]1CCN2C(=O)[C@H]1CCCC[C@H]1NC(=O)c1ccc(-c2ncc[nH]2)cc1 [Example 281, 4-(1H-imidazol-2-yl)-N-((1R,2S)-2-{[(3aR,4R,9bR)-4-(methoxymethyl)-2,3,3a,4,5,9b-hexahydro-1H-pyrrolo[3,2-c]quinolin-1-yl]carbonyl}cyclohexyl)benzamide] | < 1 nM |
| CCCCNC(=O)N[C@@H]1CCCC[C@@H]1C(=O)N1CC[C@@H]2[C@H](c3ccccc3)Nc3ccccc3[C@@H]21 [Example 153, N-Butyl-N′-((1R,2S)-2-{[(3aR,4R,9bR)-4-phenyl-2,3,3a,4,5,9b-hexahydro-1H-pyrrolo[3,2-c]quinolin-1-yl]carbonyl}cyclohexyl)urea] | < 1 nM |
| O=C(N[C@@H]1CCCC[C@@H]1C(=O)N1CC[C@@H]2[C@H](c3cccs3)Nc3ccccc3[C@@H]21)c1ccccc1 (relative stereo) [Example 17, N-((1R,2S)-2-{[(3aR*,4R*,9bR*)-4-(2-Thienyl)-2,3,3a,4,5,9b-hexahydro-1H-pyrrolo[3,2-c]quinolin-1-yl]carbonyl}cyclohexyl)benzamide] | < 10 nM |
| COC[C@@H]1Nc2ccccc2[C@H]2[C@@H]1CCN2C(=O)[C@H]1CCCC[C@H]1NC(=O)CNc1ccccc1 [Example 238, N^1-((1R,2S)-2-{[(3aR,4R,9bR)-4-(Methoxymethyl)-2,3,3a,4,5,9b-hexahydro-1H-pyrrolo[3,2-c]quinolin-1-yl]carbonyl}cyclohexyl)-N^2-phenylglycinamide] | < 10 nM |
| COC[C@@H]1Nc2ccccc2[C@H]2[C@@H]1CCN2C(=O)[C@H]1CCCC[C@H]1NC(=O)c1ccc(N2CCN(C)CC2)cc1 [Example 267, N-((1R,2S)-2-{[(3aR,4R,9bR)-4-(Methoxymethyl)-2,3,3a,4,5,9b-hexahydro-1H-pyrrolo[3,2-c]quinolin-1-yl]carbonyl}cyclohexyl)-4-(4-methylpiperazin-1-yl)benzamide] | < 10 nM |
| CNc1ccc(C(=O)N[C@@H]2CCCC[C@@H]2C(=O)N2CC[C@@H]3[C@H](COC)Nc4ccccc4[C@@H]32)cc1 [Example 239, N-((1R,2S)-2-{[(3aR,4R,9bR)-4-(Methoxymethyl)-2,3,3a,4,5,9b-hexahydro-1H-pyrrolo[3,2-c]quinolin-1-yl]carbonyl}cyclohexyl)-4-(methylamino)benzamide] | < 1 nM |
| COC[C@@H]1Nc2ccccc2[C@H]2[C@@H]1CCN2C(=O)[C@H]1CCCC[C@H]1NC(=O)c1cc2ccccc2[nH]1 [Example 229, N-((1R,2S)-2-{[(3aR,4R,9bR)-4-(Methoxymethyl)-2,3,3a,4,5,9b-hexahydro-1H-pyrrolo[3,2-c]quinolin-1-yl]carbonyl}cyclohexyl)-4H-indole-2-carboxamide] | < 1 nM |
| COC[C@@H]1Nc2ccccc2[C@H]2[C@@H]1CCN2C(=O)[C@H]1CCCC[C@H]1NC(=O)c1ccc(OC(F)(F)F)cc1 [Example 215, N-((1R,2S)-2-{[(3aR,4R,9bR)-4-(Methoxymethyl)-2,3,3a,4,5,9b-hexahydro-1H-pyrrolo[3,2-c]quinolin-1-yl]carbonyl}cyclohexyl)-4-(trifluoromethoxy)benzamide] | < 1 nM |

Source: US7943770B2, “Fused quinoline derivative and use thereof” (Takeda Pharmaceutical Company Limited, priority 2004, dated 2011)
